Experimental data taken from ChEMBL document CHEMBL1201862, “PubChem BioAssay data set” (2004).
Where “and” joins values, the source holds several entries; their conditions need not be identical. Equal values may be shown once. Calls of active or inactive are those of the source.

How the values were obtained:
SUMO-activating enzyme [1] = target: T1, SUMO-activating enzyme (Homo sapiens, UniProt Q9UBT2); test: blockers of UBC9-mediated SUMO conjugation – biochemical, AlphaScreen, SUMOylation inhibitor project, confirmation (AID 2018); format: functional
SUMO-activating enzyme [2] = target: T1, SUMO-activating enzyme; test: blockers of SAE1/SAE2–UBC9 SUMO transfer – biochemical, HTRF, uHTS, primary screen (AID 2006); format: protein-complex assay
[3] = target: T2, DNA dC->dU-editing enzyme APOBEC-3G (Homo sapiens, UniProt Q9HC16); test: Dose Response confirmation of small molecule APOBEC3G DNA Deaminase Inhibitors via a fluorescence-based single-stranded DNA deaminase assay. [Related pubchem assays (depositor defined):AID493012, AID493028]; format: functional
[4] = target: T3, DNA dC->dU-editing enzyme APOBEC-3A (Homo sapiens, UniProt P31941); test: A3A deaminase inhibition for selectivity – biochemical, dose response (AID 504722); format: functional
Genome polyprotein = Genome polyprotein (dengue virus type 2, UniProt P29990); test: flavivirus cap methylation enzyme inhibition – biochemical, confirmation dose response, primary screen (AID 588689); format: functional
Nonstructural protein 1 = Nonstructural protein 1 (Influenza A virus, UniProt Q194T2); format: functional, Influenza A virus (A/California/07/2009(H1N1))
Large T antigen = Large T antigen (Simian virus 40, UniProt P03070); format: functional, Betapolyomavirus macacae;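 note: Confirmatory-stage PubChem screen for compounds that inhibit SV40 T antigen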
[5] = target: T4, RNA-binding protein pos-1 (Caenorhabditis elegans, UniProt G5EF15); test: disruptors of C. elegans POS-1 RNA interaction – biochemical, fluorescence polarization, dose response (AID 1964);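 note: purified POS-1 fused to maltose binding protein made in E. coli; potency of compounds blocking POS-1 binding to fluorescent RNA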
T4 sequence (G5EF15 whole entry): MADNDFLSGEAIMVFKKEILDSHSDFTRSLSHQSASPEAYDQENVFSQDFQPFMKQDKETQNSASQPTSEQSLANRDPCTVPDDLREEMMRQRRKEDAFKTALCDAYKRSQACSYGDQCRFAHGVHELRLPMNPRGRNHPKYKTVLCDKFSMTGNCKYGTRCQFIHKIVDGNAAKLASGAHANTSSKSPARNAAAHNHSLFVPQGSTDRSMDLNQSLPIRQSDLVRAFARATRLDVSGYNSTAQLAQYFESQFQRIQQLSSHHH

[6] = target: T5, Zinc finger protein mex-5 (Caenorhabditis elegans, UniProt Q9XUB2); test: potency of MEX-5 RNA-binding blockers – biochemical, C. elegans, fluorescence polarization, dose response (AID 1960)
T5 sequence (Q9XUB2 whole entry): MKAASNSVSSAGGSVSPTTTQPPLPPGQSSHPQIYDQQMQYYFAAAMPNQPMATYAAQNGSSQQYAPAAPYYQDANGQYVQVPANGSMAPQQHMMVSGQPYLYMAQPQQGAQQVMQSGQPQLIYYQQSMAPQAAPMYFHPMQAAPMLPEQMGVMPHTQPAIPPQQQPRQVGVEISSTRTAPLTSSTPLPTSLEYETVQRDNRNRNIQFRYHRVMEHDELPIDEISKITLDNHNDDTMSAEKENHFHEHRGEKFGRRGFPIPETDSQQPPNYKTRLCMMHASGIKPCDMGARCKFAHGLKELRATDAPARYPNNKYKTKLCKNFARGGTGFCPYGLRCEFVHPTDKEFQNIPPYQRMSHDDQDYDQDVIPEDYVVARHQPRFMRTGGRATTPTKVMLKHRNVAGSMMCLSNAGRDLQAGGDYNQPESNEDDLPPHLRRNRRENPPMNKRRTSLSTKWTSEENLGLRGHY

[7] = target: Induced myeloid leukemia cell differentiation protein Mcl-1 (Homo sapiens, UniProt Q07820); format: functional
Aminopeptidase N = target: T6, Aminopeptidase N (Plasmodium falciparum FcB1/Columbia, UniProt O96935); test: malaria alanyl aminopeptidase activity blockers – biochemical, fluorogenic H-Leu-NHMec substrate, 1536-well (AID 1445); parameters: species or system Plasmodium falciparum 3D7, 3D7
T6 sequence (O96935 whole entry): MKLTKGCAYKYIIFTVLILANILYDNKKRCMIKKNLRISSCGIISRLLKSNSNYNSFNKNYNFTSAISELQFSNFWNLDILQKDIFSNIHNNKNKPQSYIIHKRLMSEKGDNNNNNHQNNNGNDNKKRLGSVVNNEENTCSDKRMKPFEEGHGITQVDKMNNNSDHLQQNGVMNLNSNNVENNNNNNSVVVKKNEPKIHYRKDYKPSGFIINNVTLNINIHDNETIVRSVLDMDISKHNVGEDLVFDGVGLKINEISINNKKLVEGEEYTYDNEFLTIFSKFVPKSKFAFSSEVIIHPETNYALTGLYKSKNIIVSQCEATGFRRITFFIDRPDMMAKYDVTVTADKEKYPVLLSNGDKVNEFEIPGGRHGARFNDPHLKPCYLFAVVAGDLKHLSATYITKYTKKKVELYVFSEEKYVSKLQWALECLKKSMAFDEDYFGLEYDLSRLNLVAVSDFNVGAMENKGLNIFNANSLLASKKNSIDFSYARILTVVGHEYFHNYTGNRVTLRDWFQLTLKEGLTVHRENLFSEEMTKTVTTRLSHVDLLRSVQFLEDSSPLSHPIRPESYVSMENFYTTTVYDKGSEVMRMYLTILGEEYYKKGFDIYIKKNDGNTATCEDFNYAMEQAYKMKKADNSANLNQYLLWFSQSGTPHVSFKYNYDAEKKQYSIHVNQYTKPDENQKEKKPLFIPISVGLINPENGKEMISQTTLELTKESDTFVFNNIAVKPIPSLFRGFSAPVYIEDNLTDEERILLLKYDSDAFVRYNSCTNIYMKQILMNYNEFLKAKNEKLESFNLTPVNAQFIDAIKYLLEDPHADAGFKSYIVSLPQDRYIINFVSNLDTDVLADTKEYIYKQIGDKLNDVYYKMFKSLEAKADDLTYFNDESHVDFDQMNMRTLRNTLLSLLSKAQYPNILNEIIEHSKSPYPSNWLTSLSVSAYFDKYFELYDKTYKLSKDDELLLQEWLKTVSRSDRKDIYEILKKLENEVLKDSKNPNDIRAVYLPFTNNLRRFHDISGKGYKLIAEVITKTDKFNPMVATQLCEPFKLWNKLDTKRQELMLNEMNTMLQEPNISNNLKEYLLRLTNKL

Leucine aminopeptidase = target: T7, Leucine aminopeptidase (Plasmodium falciparum 3D7, UniProt Q8IL11); test: P. falciparum M17LAP inhibitors, primary screen, biochemical, fluorogenic H-Leu-NHMec substrate, 1536-well (AID 1619); format: functional
T7 sequence (Q8IL11 whole entry): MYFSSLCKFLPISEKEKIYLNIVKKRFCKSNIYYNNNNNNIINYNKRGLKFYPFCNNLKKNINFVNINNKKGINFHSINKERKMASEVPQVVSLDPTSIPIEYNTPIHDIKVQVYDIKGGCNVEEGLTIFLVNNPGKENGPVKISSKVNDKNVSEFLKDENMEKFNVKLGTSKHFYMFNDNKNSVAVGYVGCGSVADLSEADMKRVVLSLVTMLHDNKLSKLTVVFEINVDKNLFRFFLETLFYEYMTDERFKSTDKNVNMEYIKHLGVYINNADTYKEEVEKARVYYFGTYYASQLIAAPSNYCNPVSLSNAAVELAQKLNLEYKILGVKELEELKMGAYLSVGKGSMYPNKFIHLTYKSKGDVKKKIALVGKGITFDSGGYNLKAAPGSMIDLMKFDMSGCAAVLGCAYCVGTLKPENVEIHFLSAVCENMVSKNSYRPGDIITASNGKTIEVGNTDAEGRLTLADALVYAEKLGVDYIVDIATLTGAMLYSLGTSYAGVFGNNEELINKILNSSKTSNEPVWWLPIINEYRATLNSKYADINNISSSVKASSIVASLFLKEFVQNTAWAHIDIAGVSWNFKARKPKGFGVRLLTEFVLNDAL

[8] = target: G-protein coupled receptor 55 (Homo sapiens, UniProt Q9Y2T6); test: selective activators of receptor GPR55 – imaging, U2OS cells, beta-arrestin-GFP redistribution, primary screen (AID 1961); format: functional
[9] = target: T8, Alkaline phosphatase, tissue-nonspecific isozyme (Homo sapiens, UniProt P05186); test: potency against alkaline phosphatase TNAP – biochemical, luminescent, dose response, SAR follow-up (AID 1056)
T8 sequence (P05186 whole entry): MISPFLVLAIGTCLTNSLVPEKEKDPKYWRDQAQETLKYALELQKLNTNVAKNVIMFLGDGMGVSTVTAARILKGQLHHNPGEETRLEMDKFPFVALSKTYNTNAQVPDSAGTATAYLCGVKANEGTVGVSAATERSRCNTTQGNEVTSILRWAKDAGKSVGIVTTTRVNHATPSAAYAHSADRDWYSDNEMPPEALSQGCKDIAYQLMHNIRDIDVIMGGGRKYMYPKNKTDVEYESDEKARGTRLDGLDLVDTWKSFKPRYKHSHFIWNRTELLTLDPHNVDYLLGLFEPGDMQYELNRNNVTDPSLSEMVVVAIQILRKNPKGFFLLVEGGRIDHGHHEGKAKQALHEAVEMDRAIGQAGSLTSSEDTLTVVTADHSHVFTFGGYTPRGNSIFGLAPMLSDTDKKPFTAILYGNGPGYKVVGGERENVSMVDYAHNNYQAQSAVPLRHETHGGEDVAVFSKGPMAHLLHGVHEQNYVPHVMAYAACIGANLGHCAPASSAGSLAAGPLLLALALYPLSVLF

[10] = target: Glyceraldehyde-3-phosphate dehydrogenase (Homo sapiens, UniProt P04406)
[11] = target: Alkaline phosphatase, placental type (Homo sapiens, UniProt P05187); test: human placental alkaline phosphatase inhibition – biochemical, luminescence, confirmation (AID 1512); format: functional
[12] = target: T3, DNA dC->dU-editing enzyme APOBEC-3A; test: Dose Response confirmation of small molecule APOBEC3A DNA Deaminase Inhibitors via a fluorescence-based single-stranded DNA deaminase assay. [Related pubchem assays (depositor defined):AID493011, AID493024]; format: functional
[13] = target: T2, DNA dC->dU-editing enzyme APOBEC-3G; format: functional
[14] = target: T9, Carboxy-terminal domain RNA polymerase II polypeptide A small phosphatase 1 (Homo sapiens, UniProt Q9GZU7); test: CTDSP1 inhibitors, concentration-response, biochemical, absorbance readout, ultra-high-throughput screen actives (AID 540297); format: functional
T9 sequence (Q9GZU7 whole entry): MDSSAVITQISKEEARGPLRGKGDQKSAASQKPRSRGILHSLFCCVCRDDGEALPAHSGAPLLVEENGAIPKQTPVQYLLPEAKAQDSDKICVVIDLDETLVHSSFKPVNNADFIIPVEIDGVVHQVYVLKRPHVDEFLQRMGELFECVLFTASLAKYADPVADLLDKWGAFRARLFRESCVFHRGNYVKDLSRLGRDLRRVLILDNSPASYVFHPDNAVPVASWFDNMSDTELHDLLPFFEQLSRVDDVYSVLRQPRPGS

Hexokinase = target: T10, Hexokinase (Trypanosoma brucei, UniProt Q38C41); test: Confirmation assay for inhibitors of Trypanosoma brucei hexokinase 1-Analogue-first series. [Related pubchem assays (depositor defined):AID1430, AID1632, AID2516, AID2560, AID2579, AID2600, AID449725, AID492951]; format: functional
T10 sequence (Q38C41 whole entry): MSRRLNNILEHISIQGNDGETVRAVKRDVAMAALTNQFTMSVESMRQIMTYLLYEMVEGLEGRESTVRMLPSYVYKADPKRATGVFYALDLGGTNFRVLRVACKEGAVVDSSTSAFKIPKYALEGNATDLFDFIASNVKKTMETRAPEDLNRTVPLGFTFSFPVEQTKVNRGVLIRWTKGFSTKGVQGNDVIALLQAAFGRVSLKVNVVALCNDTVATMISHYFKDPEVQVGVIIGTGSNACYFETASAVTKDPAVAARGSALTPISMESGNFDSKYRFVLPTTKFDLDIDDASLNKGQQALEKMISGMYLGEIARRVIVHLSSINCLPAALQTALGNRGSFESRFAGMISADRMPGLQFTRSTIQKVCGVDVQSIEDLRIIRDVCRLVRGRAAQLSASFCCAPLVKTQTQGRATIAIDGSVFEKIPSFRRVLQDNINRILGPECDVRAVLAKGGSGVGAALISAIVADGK

COc1ccc(C)c2sc(NC(=O)c3cccc(N4C(=O)CCC4=O)c3)nc12
IC50 (SUMO-activating enzyme [1]): 9.99 µM (active)
IC50 (SUMO-activating enzyme [2]): 6.1 µM (active)

COc1cccc(C(=O)NCc2nnc(S)n2-c2cccc(C)c2)c1
IC50 [3]: 12.8 µM (active)
IC50 [4]: > 100 µM (inactive)

O=C(O)c1ccccc1NS(=O)(=O)c1ccc(NNC(=S)Nc2ccc(OC(F)F)cc2)c([N+](=O)[O-])c1
IC50 (Genome polyprotein): 18.5 µM (active)
IC50 (Nonstructural protein 1): 13 µM (active)
IC50 (Large T antigen): 29.8 µM (active)
EC50 [5]: 7.38 µM (active)
EC50 [6]: 5.57 µM (active)
IC50 [7]: 2.95 µM (active)
IC50 (Aminopeptidase N): 17.3 µM (active)
IC50 (Leucine aminopeptidase): 5.33 µM (active)

COc1ccc(-c2cc(C(=O)Nc3cc(S(=O)(=O)N4CCOCC4)ccc3N3CCOCC3)c3ccccc3n2)cc1
EC50 [8]: 1.68 µM (active)

O=C1CC(c2ccccc2)Cc2[nH]ncc21 (stereo not drawn)
IC50 [9]: > 100 µM (inactive)
IC50 [10]: > 100 µM (not active)
IC50 [11]: > 100 µM (inactive)

Cc1ccc(-c2nc3ccccc3[nH]2)cc1NC(=S)NC(=O)c1ccccc1Br
EC50 [8]: 2.9 µM (active)

CCc1nc(CNC(=O)c2cc(OC)c(OC)c(OC)c2)no1
IC50 [12]: 2.24 µM (active)
IC50 [13]: 3.11 µM (active)

Cc1ccc(C)c(NC(=O)Cn2cc(C(=O)C3CC3)c3ccccc32)c1
IC50 [12]: 6.88 µM (active)
IC50 [13]: 6.11 µM (active)

Cc1cc(Br)ccc1NC(=O)CN(C)C(=O)Cn1c(=O)cnc2ccccc21
IC50 [14]: 7.57 µM (active)
IC50 [12]: 5.76 µM (active)
IC50 [13]: 6.85 µM (active)

COc1ccc(C(=O)Nc2ccccc2-c2nn[nH]n2)cc1
IC50 (Hexokinase): > 25 µM (inactive)

CC(C)(C)OC(=O)NC1(C(Cl)(Cl)Cl)Oc2ccccc2O1
IC50 [9]: > 100 µM (inactive)
IC50 [11]: > 100 µM (inactive)

COc1ccc(C(=O)Nc2cc(Cl)ccc2C(=O)O)cc1OC
IC50 (Hexokinase): 15.5 µM (active)

Sc1nc(-c2ccccc2)cn1/N=C/c1cccnc1
IC50 [3]: 4.77 µM (active)
IC50 [4]: > 100 µM (inactive)

COC(=O)c1cc(-c2ccc(Cl)cc2Cl)n[nH]1
IC50 [9]: 264 nM (active) and 315 nM (active)
IC50 [10]: > 100 µM (not active)
IC50 [11]: > 100 µM (inactive)
